From US20230085307A1, “PYRIDAZINONE COMPOUND AND HERBICIDE” (NISSAN CHEMICAL CORPORATION, priority 2019, published 2023)

How the values were obtained:
[1] = test system: lambsquarters; assay: Test Example 4: herbicidal effect by soil treatment (Table 19, symbol O); format: in vivo, lambsquarters (Chenopodium album)
In short: (§1)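 Scoring uses the grading scale of an earlier test, three weeks post-application. Treatment consists of spraying a diluted emulsion formulation across the surface of sterilized diluvial soil in which seeds are buried near 1.5 cm deep; boxes are kept in a greenhouse between 25° C. and 30° C.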

[2] = test system: windgrass; assay: Test Example 5: herbicidal effect by foliage application, plastic box (Table 20, symbol L); format: in vivo, windgrass (Apera spica-venti); settings: foliage application; for L: windgrass, herbicidal effect (criteria 0-5): AAH 320 g/ha, evaluated three weeks after application
In short: (§2)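 Post-emergence foliar test in sterilized diluvial soil. Compound applied as water-diluted emulsion at a predetermined rate to 14-day-old plants; evaluation at three weeks.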

[3] = test system: Italian ryegrass; assay: Test Example 5: herbicidal effect by foliage application, plastic box (Table 20, symbol K); format: in vivo, Italian ryegrass (Lolium multiflorum); settings: foliage application; for K: Italian ryegrass, herbicidal effect (criteria 0-5): AAH 320 g/ha, evaluated three weeks after application
In short: as §2

[4] = test system: windgrass; assay: Test Example 4: herbicidal effect by soil treatment (Table 19, symbol L); format: in vivo, windgrass (Apera spica-venti)
In short: as §1

[5] = test system: southern crabgrass; assay: Test Example 5: herbicidal effect by foliage application, plastic box (Table 20, symbol F); format: in vivo, southern crabgrass (Digitaria ciliaris); settings: foliage application; for F: southern crabgrass, herbicidal effect (criteria 0-5): AAH 320 g/ha, evaluated three weeks after application
In short: as §2

[6] = test system: velvetleaf; assay: Test Example 4: herbicidal effect by soil treatment (Table 19, symbol M); format: in vivo, velvetleaf (Abutilon theophrasti)
In short: as §1

[7] = test system: late watergrass; assay: Test Example 1: herbicidal activity, application before weed generation under submerged conditions (Table 16, symbol A); format: in vivo, late watergrass (Echinochloa oryzicola); settings: 320 g/ha applied herbicide
In short: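 Alluvial soil was flooded to 4 cm depth, weed seeds were sown mixed and 2.5-leaf rice seedlings were transplanted. On sowing day, the compound's emulsion, diluted in water to a set dose, was applied to the water surface. Plants grew at 25–30 °C and were scored 0–5 after three weeks.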

[8] = test system: persian speedwell; assay: Test Example 5: herbicidal effect by foliage application, plastic box (Table 20, symbol R); format: in vivo, Persian speedwell (Veronica persica); settings: foliage application; for R: persian speedwell, herbicidal effect (criteria 0-5): AAH 320 g/ha, evaluated three weeks after application
In short: as §2

[9] = test system: Chinese sprangletop; assay: Test Example 3: herbicidal effect by foliage application, Wagner pot (Table 18, symbol D); format: in vivo, chinese sprangletop (Leptochloa chinensis); settings: for herbicidal effect on D (Chinese sprangletop), rating 0-5: 320 g/ha; for herbicidal effect on D: Chinese sprangletop: amount of applied herbicide 320 g/ha
In short: (§3)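 Plants were sown in alluvial soil held under 0.1–0.5 cm standing water and grown 14 days in a greenhouse at 25–30 °C. An emulsifiable formulation, water-diluted to the set dose, was then sprayed onto the foliage, and effects were scored three weeks later using previously defined criteria.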

[10] = test system: persian speedwell; assay: Test Example 4: herbicidal effect by soil treatment (Table 19, symbol R); format: in vivo, Persian speedwell (Veronica persica)
In short: as §1

[11] = test system: lambsquarters; assay: Test Example 5: herbicidal effect by foliage application, plastic box (Table 20, symbol O); format: in vivo, lambsquarters (Chenopodium album); settings: foliage application; for O: lambsquarters, herbicidal effect (criteria 0-5): AAH 320 g/ha, evaluated three weeks after application
In short: as §2

[12] = test system: Japanese bulrush; assay: Test Example 2: herbicidal activity, application during weed generation under submerged conditions (Table 17, symbol B); format: in vivo, Japanese bulrush (Schoenoplectus juncoides); settings: AAH 320 g/ha; application during weed generation, submerged conditions
In short: (§4)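 Alluvial soil in Wagner pots was flooded to 4 cm depth and sown with the three weeds together; pots were kept in a greenhouse at 25° C. to 30° C. At the one to two leaf stage, an emulsion formulation diluted in water to a set rate went onto the water surface; scored three weeks later.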

[13] = test system: barnyard grass; assay: Test Example 3: herbicidal effect by foliage application, Wagner pot (Table 18, symbol H); format: in vivo, barnyard grass (Echinochloa crus-galli); settings: for herbicidal effect on H (barnyard grass), rating 0-5: 320 g/ha; for herbicidal effect on H: barnyard grass: amount of applied herbicide 320 g/ha
In short: as §3

[14] = test system: late watergrass; assay: Test Example 2: herbicidal activity, application during weed generation under submerged conditions (Table 17, symbol A); format: in vivo, late watergrass (Echinochloa oryzicola); settings: AAH 320 g/ha; application during weed generation, submerged conditions
In short: as §4

[15] = test system: Italian ryegrass; assay: Test Example 4: herbicidal effect by soil treatment (Table 19, symbol K); format: in vivo, Italian ryegrass (Lolium multiflorum)
In short: as §1

[16] = test system: blackgrass; assay: Test Example 4: herbicidal effect by soil treatment (Table 19, symbol J); format: in vivo, blackgrass (Alopecurus myosuroides)
In short: as §1

[17] = test system: southern crabgrass; assay: Test Example 4: herbicidal effect by soil treatment (Table 19, symbol F); format: in vivo, southern crabgrass (Digitaria ciliaris)
In short: as §1

[18] = 320 g/ha, 3 weeks after application
[19] = amount of applied herbicide 320 g/ha
[20] = 320 g/ha, three weeks after application

Structure (SMILES): CCOc1ccc(-c2sc3ccc(F)cc3c2-c2c(O)c(C)nn(C)c2=O)cc1 [2-030]
- herbicidal effect rating, O: lambsquarters ([1]; 320 g/ha): 5 (Herbicidal rate of 90% or more (almost completely withered))
- effect on windgrass (L) [2, 18]: 3 (Herbicidal rate of 40% or more and less than 70%)
- effect on Italian ryegrass (K) [3, 18]: 3 (Herbicidal rate of 40% or more and less than 70%)
- herbicidal effect rating, L: windgrass ([4]; 320 g/ha): 0 (Herbicidal rate of 5% or less (almost no effect))
- effect on southern crabgrass (F) [5, 18]: 3 (Herbicidal rate of 40% or more and less than 70%)
- herbicidal effect rating, M: velvetleaf ([6]; 320 g/ha): 3 (Herbicidal rate of 40% or more and less than 70%)
- Herbicidal effect on A: late watergrass (grade 0-5) [7]: 3 (Herbicidal rate of 40% or more and less than 70%)
- effect on persian speedwell (R) [8, 18]: 5 (Herbicidal rate of 90% or more (almost completely withered))
- herbicidal effect on D (Chinese sprangletop), rating 0-5 [9]: 3 (Herbicidal rate of 40% or more and less than 70%)
- herbicidal effect rating, R: persian speedwell ([10]; 320 g/ha): 5 (Herbicidal rate of 90% or more (almost completely withered))
- effect on lambsquarters (O) [11, 18]: 4 (Herbicidal rate of 70% or more and less than 90%)
- herbicidal effect rating, B: Japanese bulrush [12]: 2 (Herbicidal rate of 20% or more and less than 40%)
- herbicidal effect on H (barnyard grass), rating 0-5 [13]: 5 (Herbicidal rate of 90% or more (almost completely withered))
- herbicidal effect rating, A: late watergrass [14]: 0 (Herbicidal rate of 5% or less (almost no effect))
- herbicidal effect rating, K: Italian ryegrass ([15]; 320 g/ha): 0 (Herbicidal rate of 5% or less (almost no effect))
- herbicidal effect rating, J: blackgrass ([16]; 320 g/ha): 0 (Herbicidal rate of 5% or less (almost no effect))
- herbicidal effect rating, F: southern crabgrass ([17]; 320 g/ha): 0 (Herbicidal rate of 5% or less (almost no effect))

Structure (SMILES): COc1ccc(-c2sc3ccccc3c2-c2c(O)c(C)nn(C)c2=O)cc1OC [1-072]
- herbicidal effect rating, O: lambsquarters [1, 19]: 5 (Herbicidal rate of 90% or more (almost completely withered))
- herbicidal effect grade, L: windgrass [2, 20]: 1 (Herbicidal rate of 5% or more and less than 20%)
- herbicidal effect grade, K: Italian ryegrass [3, 20]: 5 (Herbicidal rate of 90% or more (almost completely withered))
- herbicidal effect rating, L: windgrass [4, 19]: 0 (Herbicidal rate of 5% or less (almost no effect))
- herbicidal effect grade, F: southern crabgrass [5, 20]: 5 (Herbicidal rate of 90% or more (almost completely withered))
- herbicidal effect rating, M: velvetleaf [6, 19]: 5 (Herbicidal rate of 90% or more (almost completely withered))
- Herbicidal effect on A: late watergrass (grade 0-5) [7]: 3 (Herbicidal rate of 40% or more and less than 70%)
- herbicidal effect grade, R: persian speedwell [8, 20]: 5 (Herbicidal rate of 90% or more (almost completely withered))
- herbicidal effect on D (Chinese sprangletop), rating 0-5 [9]: 5 (Herbicidal rate of 90% or more (almost completely withered))
- herbicidal effect rating, R: persian speedwell [10, 19]: 5 (Herbicidal rate of 90% or more (almost completely withered))
- herbicidal effect grade, O: lambsquarters [11, 20]: 5 (Herbicidal rate of 90% or more (almost completely withered))
- herbicidal effect rating, B: Japanese bulrush [12]: 3 (Herbicidal rate of 40% or more and less than 70%)
- herbicidal effect on H (barnyard grass), rating 0-5 [13]: 5 (Herbicidal rate of 90% or more (almost completely withered))
- herbicidal effect rating, A: late watergrass [14]: 2 (Herbicidal rate of 20% or more and less than 40%)
- herbicidal effect rating, K: Italian ryegrass [15, 19]: 5 (Herbicidal rate of 90% or more (almost completely withered))
- herbicidal effect rating, J: blackgrass [16, 19]: 0 (Herbicidal rate of 5% or less (almost no effect))
- herbicidal effect rating, F: southern crabgrass [17, 19]: 5 (Herbicidal rate of 90% or more (almost completely withered))

Structure (SMILES): CCCC(=O)Oc1c(C)nn(C)c(=O)c1-c1c(-c2ccc(F)c(F)c2)sc2ccc(F)cc12 [2-345]
- herbicidal effect on O: lambsquarters [1, 19]: 4 (Herbicidal rate of 70% or more and less than 90%)
- L: windgrass, herbicidal effect (criteria 0-5) [2]: 1 (Herbicidal rate of 5% or more and less than 20%)
- K: Italian ryegrass, herbicidal effect (criteria 0-5) [3]: 3 (Herbicidal rate of 40% or more and less than 70%)
- herbicidal effect on L: windgrass [4, 19]: 0 (Herbicidal rate of 5% or less (almost no effect))
- F: southern crabgrass, herbicidal effect (criteria 0-5) [5]: 4 (Herbicidal rate of 70% or more and less than 90%)
- herbicidal effect on M: velvetleaf [6, 19]: 3 (Herbicidal rate of 40% or more and less than 70%)
- Herbicidal effect on A: late watergrass (grade 0-5) [7]: 4 (Herbicidal rate of 70% or more and less than 90%)
- R: persian speedwell, herbicidal effect (criteria 0-5) [8]: 5 (Herbicidal rate of 90% or more (almost completely withered))
- herbicidal effect on D: Chinese sprangletop [9]: 5 (Herbicidal rate of 90% or more (almost completely withered))
- herbicidal effect on R: persian speedwell [10, 19]: 5 (Herbicidal rate of 90% or more (almost completely withered))
- O: lambsquarters, herbicidal effect (criteria 0-5) [11]: 5 (Herbicidal rate of 90% or more (almost completely withered))
- herbicidal effect rating, B: Japanese bulrush [12]: 5 (Herbicidal rate of 90% or more (almost completely withered))
- herbicidal effect on H: barnyard grass [13]: 5 (Herbicidal rate of 90% or more (almost completely withered))
- herbicidal effect rating, A: late watergrass [14]: 5 (Herbicidal rate of 90% or more (almost completely withered))
- herbicidal effect on K: Italian ryegrass [15, 19]: 0 (Herbicidal rate of 5% or less (almost no effect))
- herbicidal effect on J: blackgrass [16, 19]: 0 (Herbicidal rate of 5% or less (almost no effect))
- herbicidal effect on F: southern crabgrass [17, 19]: 3 (Herbicidal rate of 40% or more and less than 70%)

Structure (SMILES): Cc1nn(C)c(=O)c(-c2c(-c3ccc(OC(F)F)cc3)sc3ccc(F)cc23)c1OC(=O)COc1ccccc1 [2-284]
- herbicidal effect on O: lambsquarters [1, 19]: 5 (Herbicidal rate of 90% or more (almost completely withered))
- L: windgrass, herbicidal effect (criteria 0-5) [2]: 4 (Herbicidal rate of 70% or more and less than 90%)
- K: Italian ryegrass, herbicidal effect (criteria 0-5) [3]: 5 (Herbicidal rate of 90% or more (almost completely withered))
- herbicidal effect on L: windgrass [4, 19]: 4 (Herbicidal rate of 70% or more and less than 90%)
- F: southern crabgrass, herbicidal effect (criteria 0-5) [5]: 3 (Herbicidal rate of 40% or more and less than 70%)
- herbicidal effect on M: velvetleaf [6, 19]: 5 (Herbicidal rate of 90% or more (almost completely withered))
- Herbicidal effect on A: late watergrass (grade 0-5) [7]: 3 (Herbicidal rate of 40% or more and less than 70%)
- R: persian speedwell, herbicidal effect (criteria 0-5) [8]: 5 (Herbicidal rate of 90% or more (almost completely withered))
- herbicidal effect on D: Chinese sprangletop [9]: 3 (Herbicidal rate of 40% or more and less than 70%)
- herbicidal effect on R: persian speedwell [10, 19]: 5 (Herbicidal rate of 90% or more (almost completely withered))
- O: lambsquarters, herbicidal effect (criteria 0-5) [11]: 5 (Herbicidal rate of 90% or more (almost completely withered))
- herbicidal effect rating, B: Japanese bulrush [12]: 3 (Herbicidal rate of 40% or more and less than 70%)
- herbicidal effect on H: barnyard grass [13]: 5 (Herbicidal rate of 90% or more (almost completely withered))
- herbicidal effect rating, A: late watergrass [14]: 3 (Herbicidal rate of 40% or more and less than 70%)
- herbicidal effect on K: Italian ryegrass [15, 19]: 5 (Herbicidal rate of 90% or more (almost completely withered))
- herbicidal effect on J: blackgrass [16, 19]: 5 (Herbicidal rate of 90% or more (almost completely withered))
- herbicidal effect on F: southern crabgrass [17, 19]: 4 (Herbicidal rate of 70% or more and less than 90%)
